Assay results reported in patent publication US6383520B1, “Fine powder of L-α-aminoadipic acid derivative, oral solid preparations containing the same, and method for treatment of bulk powders” (Chugai Seiyaku Kabushiki Kaisha, priority 1998, dated 2002).

Tests used:
[1] = Thermal analysis: differential scanning calorimetry, endotherm; type: physicochemical; conditions: DSC; for Endotherm: temperature rise 5° C./min; for endotherm compared with the unground bulk powder (in words): before and after the grinding treatment
Procedure: The finely ground powder of MX-68 sustaining the crystallinity according to the present invention means a finely ground powder of MX-68 which has, both before and after the grinding treatment, parts showing polarization when observed under a polarization microscope, and has an endotherm of from 25 to 50 mJ/mg, preferably from […] at an endothermic peak appearing, for example, at 185 to 195° C. in the differential scanning calorimetry as will be described Example 2.
A crystalline bulk powder of MX-68 obtained by the method described in Japanese Laid-Open Patent Publication No. 6-239863(A)) (manufactured by Chugai Pharmaceutical Co., Ltd.) and the finely ground powders of MX-68 obtained by the grinding methods described in Example 1 were thermally analyzed to thereby determine the differential scanning calories (DSC, temperature rise: 5° C./min). Then the endotherm (caused by the endothermic reaction occurring in association with the conversion of crystalline particles in the crystalline bulk powder into the amorphous state) was calculated.

[2] = Storage stability (60° C., 2 weeks); type: physicochemical; conditions: for Residual ratio: storage 60° C.; for storage stability after the grinding treatment (in words): 60° C.
Procedure: A comparison was made on the storage stability (60° C., 2 weeks) of the crystalline bulk powder of MX-68 obtained by the method described in Japanese Laid-Open Patent Publication No. 6-239863(A)) (manufactured by Chugai Pharmaceutical Co., Ltd.), the mortar-ground bulk powder and the centrifugal-ground bulk powder obtained in Example 1.

[3] = Dissolution test, method 2 (paddle method), Japanese Pharmacopoeia; type: physicochemical; conditions: compared with the amorphous bulk powder
Excerpt: Tablets of the following formula were produced by using the crystalline bulk powder of MX-68 obtained by the method described in Japanese Laid-Open Patent Publication No. 6-239863(A)) (manufactured by Chugai Pharmaceutical Co., Ltd.), an amorphous bulk powder and the centrifugal.-ground bulk powder obtained in Example 1. More particularly, MX-68, lactose, crystalline cellulose and croscarmellose sodium were dry-mixed. After adding water, the mixture was kneaded and granulated. Then the granulated matter was dried at 50° C., mixed with magnesium stearate, and press molded to give tablets of 6 mm in diameter. In accordance with the method 2 (paddle method) of the dissolution test as specified in Japanese Pharmacopoeia, these tablets were subjected to the dissolution test using 500 ml of JP official solution 1 at 37° C.

[4] = Pharmacokinetics after oral administration to dogs, MX-68 concentration in the blood; type: in vivo; conditions: 1 mg/kg
[5] = Average particle diameter by dry particle size distribution measurement (AEROSIZER mach 2); type: physicochemical; conditions: dry particle size distribution measurement after grinding
Excerpt: The average particle diameter of the finely ground powder of MX-68 in the present invention can be measured by using, for example, a dry particle size distribution measurement apparatus (AEROSIZER mach 2, manufactured by AMHERST PROCESS INSTRUMENTS, INC) as will be described in Example 1 hereinafter. The finely ground powder of MX-68 according to the present invention has an average particle diameter of from 5 to 25 μm. When the average particle diameter is less than 5 μm, the finely ground powder is liable to be charged with static electricity and thus there arises a high possibility of dusting and adhesion. When the average particle diameter exceeds 25 μm, on the other hand, it is feared that the solubility and/or content uniformity of MX-68 are adversely affected. It is preferable that the average particle diameter ranges from 8 to 15 μm, still preferably from 9 to 11 μm.
A crystalline bulk powder of MX-68 obtained by the method described in Japanese Laid-Open Patent Publication No. 6-239863(A)) (manufactured by Chugai Pharmaceutical Co., Ltd.) was manually ground in an agate mortar. Separately, the same bulk powder was ground with a centrifugal grinder (ZM-1, manufactured by Nippon Seiki Seisakusho) by using a screen (pore size: 0.2 mm) at 20,000 rpm. Separately, the same bulk powder was ground with a micro-labo jet mill (A-O Jet Mill, manufactured by Seishin Kigyo). The particle diameter of each finely ground powder of MX-68 thus obtained was measured by using a dry particle size distribution measurement apparatus (AEROSIZER mach 2, manufactured by AMHERST PROCESS INSTRUMENTS, INC) and the average particle diameter was determined. As a result, the average particle diameter could be controlled to 9 to 11 μm by each grinding method (Table 1).

| Structure (SMILES) | Endotherm [1] [mJ/mg] | Residual ratio [2] [%] | solution speed (in words) [3] | bioavailability (in words) ([4]; compared with the amorphous bulk powder) | absorbability (in words) ([4]; compared with the unground bulk powder) | Average particle diameter [5] [μm] | endotherm compared with the unground bulk powder (in words) [1] | Residual ratio ([2]; listed as Motor-ground bulk powder) [%] | storage stability after the grinding treatment (in words) [2] |
| --- | --- | --- | --- | --- | --- | --- | --- | --- | --- |
| Nc1nc(N)c2nc(CN3CCSc4cc(C(=O)N[C@@H](CCCC(=O)O)C(=O)O)ccc43)cnc2n1 [Unground bulk powder] | 33.5 | 95.3 | lower solution speed | lower bioavailability | – | – | – | – | – |
| Nc1nc(N)c2nc(CN3CCSc4cc(C(=O)N[C@@H](CCCC(=O)O)C(=O)O)ccc43)cnc2n1 [amorphous bulk MX-68 powder, N-(1-((2,4-diamino-6-pteridinyl)methyl)-3,4-dihydro-2H-1,4-benzothiazine-7-carbonyl)L-α-aminoadipic acid] | – | – | – | – | higher absorbability | – | – | – | – |
| Nc1nc(N)c2nc(CN3CCSc4cc(C(=O)N[C@@H](CCCC(=O)O)C(=O)O)ccc43)cnc2n1 [Centrifugal-ground bulk powder, N-(1-((2,4-diamino-6-pteridinyl)methyl)-3,4-dihydro-2H-1,4-benzothiazine-7-carbonyl)L-α-aminoadipic acid] | 32.8 | 96.3 | – | – | – | 11.4 | no change in the endotherm | – | sustained stability comparable to the unground bulk powder |

Further lines, with some results ahead:

| Endotherm [1] [mJ/mg] | Residual ratio [2] [%] | solution speed (in words) [3] | bioavailability (in words) ([4]; compared with the amorphous bulk powder) | absorbability (in words) ([4]; compared with the unground bulk powder) | Average particle diameter [5] [μm] | endotherm compared with the unground bulk powder (in words) [1] | Residual ratio ([2]; listed as Motor-ground bulk powder) [%] | Structure (SMILES) | storage stability after the grinding treatment (in words) [2] |
| --- | --- | --- | --- | --- | --- | --- | --- | --- | --- |
| 22.3 | – | – | – | – | 9.3 | a decrease in the endotherm | 90.9 | Nc1nc(N)c2nc(CN3CCSc4cc(C(=O)N[C@@H](CCCC(=O)O)C(=O)O)ccc43)cnc2n1 [Mortar-ground bulk powder] | a decrease in stability |
| 33.2 | – | – | – | – | 10.7 | no change in the endotherm | – | Nc1nc(N)c2nc(CN3CCSc4cc(C(=O)N[C@@H](CCCC(=O)O)C(=O)O)ccc43)cnc2n1 [Jet mill-ground bulk powder, N-(1-((2,4-diamino-6-pteridinyl)methyl)-3,4-dihydro-2H-1,4-benzothiazine-7-carbonyl)L-α-aminoadipic acid] | – |
